# According to US20190151495A1, “Composite biomaterials with controlled release of active ingredient, preparation process and uses” (CENTRE NATIONAL DE LA RECHERCHE SCIENTIFIQUE, priority 2016, published 2019):
# Columns and labels:
# [1] = tested on: primary human dermal fibroblasts; assay: Toxicity of the materials: cell viability by metabolic test (AlamarBlue Assay); type: cell-based; conditions: FIG. 11
# Method: The toxicity of the materials was measured as follows: primary human dermal fibroblasts were seeded onto a culture plate. The composite hydrogels were then incubated with the fibroblasts for 1 or 6 days. The cell viability was measured by a metabolic test (AlamarBlue Assay®) and compared with that of control fibroblasts (without addition of composite hydrogel).
# FIG. 11 represents the toxicity of the composite biomaterial of the invention M1-S on cells (fibroblasts) and by way of comparison: • the toxicity of a dry collagen material impregnated with spironolactone MB-S obtained from the dehydrated pure collagen material MA-HD as obtained in example 1.3 which was impregnated with a solution comprising approximately 10^−2 M of spironolactone in THF, rinsed and lyophilized in accordance with example 1.4 above, • the toxicity of a dry collagen material impregnated with PLGA MC-S obtained from the dehydrated pure collagen material MA-HD as obtained in example 1.3 which was impregnated with a solution comprising approximately 160 mg/ml of PLGA 30-60 kDa in THF, rinsed and lyophilized in accordance with example 1.4, and • the toxicity of a dry pure collagen material MA-S as obtained in example 1.3.
# Moreover, C represents a negative control (well containing just the cells without hydrogel). […]
# [2] = target: T1, mineralocorticoid receptor (Rattus norvegicus, UniProt P22199); assay: Biological activity of spironolactone: luciferase reporter in H9C2 cells incubated with aldosterone; type: cell-based; conditions: FIG. 12
# T1 construct: H9C2 cells are myoblasts genetically modified by the incorporation of the reporter gene encoding luciferase; endogenous in cells; host or cells: H9C2 myoblasts carrying a luciferase reporter
# T1 sequence (P22199 1-981): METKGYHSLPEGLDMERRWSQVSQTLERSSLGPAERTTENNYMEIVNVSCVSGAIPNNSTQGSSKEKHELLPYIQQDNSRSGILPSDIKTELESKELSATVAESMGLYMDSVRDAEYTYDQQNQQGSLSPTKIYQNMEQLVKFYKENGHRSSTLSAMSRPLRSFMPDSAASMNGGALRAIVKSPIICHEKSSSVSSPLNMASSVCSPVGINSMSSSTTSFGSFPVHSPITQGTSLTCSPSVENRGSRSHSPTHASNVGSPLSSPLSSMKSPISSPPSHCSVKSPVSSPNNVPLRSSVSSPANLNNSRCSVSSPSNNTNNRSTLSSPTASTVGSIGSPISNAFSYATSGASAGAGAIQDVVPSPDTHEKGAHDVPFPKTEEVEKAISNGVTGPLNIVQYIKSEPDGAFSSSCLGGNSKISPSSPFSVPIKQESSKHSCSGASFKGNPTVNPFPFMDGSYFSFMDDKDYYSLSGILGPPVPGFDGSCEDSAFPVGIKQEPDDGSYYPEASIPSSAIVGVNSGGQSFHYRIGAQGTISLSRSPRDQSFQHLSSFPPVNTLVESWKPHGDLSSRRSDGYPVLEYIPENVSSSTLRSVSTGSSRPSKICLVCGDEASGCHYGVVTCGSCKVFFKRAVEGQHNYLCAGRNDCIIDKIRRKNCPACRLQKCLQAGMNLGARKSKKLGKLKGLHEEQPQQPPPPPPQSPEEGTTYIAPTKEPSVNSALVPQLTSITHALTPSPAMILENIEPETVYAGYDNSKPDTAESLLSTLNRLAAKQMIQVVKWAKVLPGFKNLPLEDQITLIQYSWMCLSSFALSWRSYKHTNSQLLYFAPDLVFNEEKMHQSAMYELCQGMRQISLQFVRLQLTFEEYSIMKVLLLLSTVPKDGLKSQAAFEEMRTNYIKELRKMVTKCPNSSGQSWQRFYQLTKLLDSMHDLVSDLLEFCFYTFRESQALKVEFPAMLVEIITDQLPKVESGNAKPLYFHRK
# Method: The biological activity of the spironolactone was measured in the following manner: H9C2 cells are myoblasts genetically modified by the incorporation of the reporter gene encoding luciferase downstream of the promoter having sequences binding the complex of aldosterone plus its receptor. When aldosterone was added, luciferase was expressed and detected by bioluminescence. […] This inhibition reports the biological activity of the spironolactone on H9C2s incubated with aldosterone. The spironolactone activity was measured directly on the spironolactone releasing liquid originating from the different types of hydrogels tested.
# FIG. 12 represents the biological activity of the spironolactone released from a hydrogel after 15 days of incubation in PBS (with changing of the buffer every day); when the following are used:
# (2) a mixture of a material MB-S with aldosterone at approximately 10^−8 M,
# (3) a mixture of a material MC-S with aldosterone at approximately 10^−8 M,
# (4) a mixture of a material MA-S with aldosterone at approximately 10^−8 M,
# (5) a negative control (well containing the culture medium without aldosterone),
# (6) aldosterone at approximately 10^−8 M, and
# (7) a mixture of aldosterone at approximately 10^−8 M and spironolactone at approximately 10^−6 M.
smiles,measurement,setting,value
CC(=O)S[C@@H]1CC2=CC(=O)CC[C@]2(C)[C@H]2CC[C@@]3(C)[C@@H](CC[C@@]34CCC(=O)O4)[C@H]12 [spironolactone],toxicity on cells (in words),"[1]; 1 day and 6 days, compared with control",slight toxic effect
same,cell viability (cells survived),"[1]; first day, relative to negative control C",74%
same,production of luciferase (inhibition of aldosterone effect),"[2]; free spironolactone approximately 10^-6 M with aldosterone approximately 10^-8 M, conditions (7)",the effect of the aldosterone is inhibited
C[C@]12CCC(=O)C=C1CC[C@@H]1[C@@H]2[C@@H](O)C[C@]2(C=O)[C@@H](C(=O)CO)CC[C@@H]12 [aldosterone],production of luciferase (receptor activation),"[2]; aldosterone approximately 10^-8 M alone, conditions (6) versus negative control (5)",caused strong transcription
